Experimental data published in ChEMBL document CHEMBL1201862, “PubChem BioAssay data set” (2004).
Activity calls are given as the source filed them.

Experiments:
Vero = assay: viability loss in Vero cells – cell-based, plate reader, cherry-pick samples, cytotoxicity control, dose response (AID 687020); assay type: functional; conditions: Chlorocebus sabaeus
HeLa = assay: viability loss in HeLa cells – cell-based, ATP luminescence, cherry-pick samples, cytotoxicity control, dose response (AID 687004); assay type: functional; conditions: Homo sapiens
[1] = Counterscreen for activators of the function of SWI/SNF related, matrix associated, actin dependent regulator of chromatin, subfamily a, member 2 (SMARCA2, BRM): Luminescence-based cell-based high throughput dose response assay to identify non-selective compounds using the VP16 reporter assay.; assay type: functional
[2] = biological target: SWI/SNF-related matrix-associated actin-dependent regulator of chromatin subfamily A member 2 (Homo sapiens, UniProt P51531); assay: Luminescence-based cell-based high throughput dose response assay to identify activators of the function of SWI/SNF related, matrix associated, actin dependent regulator of chromatin, subfamily a, member 2 (SMARCA2, BRM).; assay type: functional
Chain of SWI/SNF-related matrix-associated actin-dependent regulator of chromatin subfamily A member 2 (P51531 whole entry): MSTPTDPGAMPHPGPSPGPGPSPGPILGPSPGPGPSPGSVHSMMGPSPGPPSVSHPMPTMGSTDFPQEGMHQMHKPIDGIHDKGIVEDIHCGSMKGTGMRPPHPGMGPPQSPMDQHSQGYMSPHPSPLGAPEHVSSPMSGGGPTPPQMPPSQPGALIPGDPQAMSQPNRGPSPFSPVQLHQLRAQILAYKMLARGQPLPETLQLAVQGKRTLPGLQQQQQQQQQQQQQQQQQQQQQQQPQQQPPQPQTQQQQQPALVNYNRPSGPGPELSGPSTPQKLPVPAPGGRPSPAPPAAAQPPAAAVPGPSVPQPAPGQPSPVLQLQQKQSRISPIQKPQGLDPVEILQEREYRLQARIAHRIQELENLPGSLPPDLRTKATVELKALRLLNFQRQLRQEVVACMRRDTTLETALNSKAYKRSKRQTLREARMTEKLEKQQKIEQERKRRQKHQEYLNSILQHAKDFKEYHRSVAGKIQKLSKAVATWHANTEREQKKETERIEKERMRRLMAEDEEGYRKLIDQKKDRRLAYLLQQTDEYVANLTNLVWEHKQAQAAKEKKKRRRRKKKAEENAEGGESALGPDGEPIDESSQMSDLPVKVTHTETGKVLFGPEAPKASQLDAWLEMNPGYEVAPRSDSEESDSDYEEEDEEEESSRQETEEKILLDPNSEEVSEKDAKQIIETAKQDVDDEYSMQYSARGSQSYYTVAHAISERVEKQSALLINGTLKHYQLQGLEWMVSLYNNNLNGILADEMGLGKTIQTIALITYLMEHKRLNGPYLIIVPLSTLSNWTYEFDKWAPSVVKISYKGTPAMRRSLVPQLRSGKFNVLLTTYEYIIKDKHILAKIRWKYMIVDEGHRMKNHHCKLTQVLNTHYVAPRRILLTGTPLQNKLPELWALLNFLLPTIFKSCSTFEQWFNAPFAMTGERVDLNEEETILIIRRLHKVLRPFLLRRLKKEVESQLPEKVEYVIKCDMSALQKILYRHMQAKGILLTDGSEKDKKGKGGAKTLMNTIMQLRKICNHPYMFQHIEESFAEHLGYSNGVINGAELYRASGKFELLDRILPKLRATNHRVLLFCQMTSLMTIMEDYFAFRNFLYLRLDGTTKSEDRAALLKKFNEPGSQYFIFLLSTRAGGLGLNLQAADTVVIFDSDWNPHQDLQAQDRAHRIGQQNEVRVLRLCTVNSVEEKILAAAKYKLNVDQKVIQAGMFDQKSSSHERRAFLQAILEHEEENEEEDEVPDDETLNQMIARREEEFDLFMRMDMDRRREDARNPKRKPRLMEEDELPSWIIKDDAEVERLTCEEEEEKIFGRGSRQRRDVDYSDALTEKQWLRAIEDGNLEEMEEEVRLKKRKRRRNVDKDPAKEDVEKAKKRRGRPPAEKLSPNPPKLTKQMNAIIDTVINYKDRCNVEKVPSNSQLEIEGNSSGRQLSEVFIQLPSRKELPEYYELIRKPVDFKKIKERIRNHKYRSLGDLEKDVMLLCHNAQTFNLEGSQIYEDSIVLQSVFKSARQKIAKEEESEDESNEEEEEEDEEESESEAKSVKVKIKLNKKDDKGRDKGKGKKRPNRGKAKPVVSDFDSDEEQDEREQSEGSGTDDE

[3] = general cell-killing toxicity readout – plate reader, dry powder samples, cytotoxicity control for PAX8 inhibitor project, dose response (AID 743021); assay type: functional, cell-based
[4] = OVCAR-3 cell viability loss – plate reader, dry powder samples, PAX8 inhibitor project, dose response (AID 743044); assay type: functional, cell-based
Paired box protein Pax-8 = Paired box protein Pax-8 (Homo sapiens, UniProt Q06710); assay: PAX8 transcriptional activity inhibition in RMG-I – RMG-I cells, luciferase, cherry-pick, dose response (AID 687027); assay type: functional, cell-based;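 further: luciferase reporter driven by Pax8 target thyroperoxidase promoter measured by SteadyGlo luminescence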
Chain of Paired box protein Pax-8 (Q06710 whole entry): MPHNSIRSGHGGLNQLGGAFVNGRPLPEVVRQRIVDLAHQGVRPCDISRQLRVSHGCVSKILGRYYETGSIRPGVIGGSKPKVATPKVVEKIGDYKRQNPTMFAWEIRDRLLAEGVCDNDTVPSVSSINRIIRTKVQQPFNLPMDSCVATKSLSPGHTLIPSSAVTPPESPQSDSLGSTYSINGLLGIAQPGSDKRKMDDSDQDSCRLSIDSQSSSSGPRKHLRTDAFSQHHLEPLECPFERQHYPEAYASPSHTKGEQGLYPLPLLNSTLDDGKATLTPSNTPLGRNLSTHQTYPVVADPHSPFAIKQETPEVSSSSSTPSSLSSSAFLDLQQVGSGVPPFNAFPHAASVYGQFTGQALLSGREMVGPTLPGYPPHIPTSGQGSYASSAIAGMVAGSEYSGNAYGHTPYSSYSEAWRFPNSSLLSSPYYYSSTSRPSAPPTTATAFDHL

[5] = CMV-driven luciferase expression suppression in HEK293 – cell-based, luminescence, dry powder, counter-screen for Pax8 inhibitor project, dose response (AID 743020); assay type: functional
[6] = IGROV1 cell killing – plate reader, dry powder samples, PAX8 inhibitor project, dose response (AID 743043); assay type: functional, cell-based; conditions: IGROV-1
[7] = biological target: T1, Trace amine-associated receptor 1 (Homo sapiens, UniProt Q96RJ0); assay: Fluorescence-based cell-based high throughput dose response assay to identify agonists of the human trace amine associated receptor 1 (TAAR1).; assay type: functional
T1 sequence (Q96RJ0 whole entry): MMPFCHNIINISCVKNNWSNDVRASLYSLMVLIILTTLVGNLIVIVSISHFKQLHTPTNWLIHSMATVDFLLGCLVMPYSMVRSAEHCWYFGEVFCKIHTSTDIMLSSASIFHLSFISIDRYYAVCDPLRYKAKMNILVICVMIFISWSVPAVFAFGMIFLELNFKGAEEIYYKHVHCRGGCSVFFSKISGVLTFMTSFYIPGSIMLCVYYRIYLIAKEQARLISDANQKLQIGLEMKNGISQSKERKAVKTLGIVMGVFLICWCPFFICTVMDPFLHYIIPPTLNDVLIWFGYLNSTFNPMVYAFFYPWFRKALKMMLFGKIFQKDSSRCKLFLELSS

[8] = biological target: T1, Trace amine-associated receptor 1; assay: Counterscreen for agonists of the human trace amine associated receptor 1 (hTAAR1): Fluorescence-based cell-based high throughput dose response assay to identify hTAAR1 agonist that also desensitize TAAR1 receptor response.; assay type: functional
cells [9] = assay type: functional, cell-based
cells [10] = assay type: functional, cell-based; remark: listed apart in the source
A549 = assay: viability loss in A549 cells – cell-based, plate reader, cherry-pick samples, cytotoxicity control, dose response (AID 687028); assay type: functional; conditions: Homo sapiens
[11] = inhibitors of EBV LMP1 NF-kappaB signaling – cell-based, luciferase reporter, luminescence, dry powder, set 2, dose response (AID 624376); assay type: functional
[12] = LMP1-induced NF-kB luciferase signal inhibition – cell-based, EBV LMP1, dry powder, set 2, dose response (AID 624361); assay type: functional
[13] = anti-trypanosomal activity in BESM host cells – imaging, CA-I/72 strain, bovine embryo skeletal muscle, dry powder, dose response (AID 651885); assay type: functional, cell-based
[14] = mouse embryonic fibroblast toxicity – cell-based, plate reader, dry powder, set 2, cytotoxicity control, dose response (AID 652280); assay type: functional; conditions: NIH3T3
[15] = T. cruzi growth inhibition in host cells, dose response, cell-based, plate reader, dry powder, set 2 (AID 652275); assay type: functional
[16] = inhibition of mouse IRAP aminopeptidase activity – biochemical, Leu-AMC fluorescence, cherry-picked samples, set 2, selectivity assay for ERAP1 modulator project, dose response (AID 743340)
[17] = viability loss in A549 lung cancer cells – cell-based, cherry-picks, […], cytotoxicity control, dose response (AID 1053119); assay type: functional
[18] = toxicity to human hepatoma HepG2 cells – cell-based, cherry-picked samples, cytotoxicity control, dose response (AID 1159577); assay type: functional
[19] = viability loss in HepG2 hepatoma cells – cell-based, cherry-picks, set 5, cytotoxicity control, dose response (AID 1053118); assay type: functional
[20] = viability loss in HEK293 kidney cells – cell-based, cherry-picks, set 5, cytotoxicity control, dose response (AID 1053117); assay type: functional
[21] = P. falciparum Dd2 growth inhibitors, dose response, SYBR Green, cherry-picked samples (AID 1159567); assay type: functional, cell-based
[22] = HeLa cell viability loss – plate reader, dry powder, cytotoxicity control, dose response (AID 651946); assay type: functional, cell-based

CN(C)C1(CNC(=O)C2CCN(S(=O)(=O)c3ccccc3C(F)(F)F)CC2)CCCCC1
AC50 (Vero): 36.2 µM (active)

CCC(=O)N(C)C[C@H]1Oc2cc(-c3ccccc3)ccc2S(=O)(=O)N([C@H](C)CO)C[C@H]1C
AC50 (HeLa): 4.07 µM (active)

O=C(C=Cc1ccc(OCc2ccccc2)cc1)c1c(F)cccc1F
EC50 [1]: > 91.2 µM (inactive)
EC50 [2]: > 91.2 µM (inactive)

C[C@@H]1CCCCO[C@@H](CN(C)S(=O)(=O)c2ccccc2)[C@H](C)CN([C@H](C)CO)C(=O)c2cc(NC(=O)Nc3ccc(C(F)(F)F)cc3)ccc2O1
AC50 [3]: 54.7 µM (active)
AC50 [4]: 20.2 µM (active)
AC50 (Paired box protein Pax-8): 3.44 µM (active)
AC50 [5]: 28.4 µM (active)
AC50 [6]: 57.1 µM (active)

CC(C)[C@H](NC(=O)c1ccc(Cl)cc1Cl)C(=O)N1CCC[C@H]1C(=O)NCCc1ccccc1Cl
EC50 [7]: 1.19 µM (active)
IC50 [8]: 3.47 µM (active)
IC50 (cells [9]): > 29.9 µM (inactive)
EC50 (cells [10]): > 29.9 µM (inactive)

CCOC(=O)[C@]12CCC=C1N(Cc1ccccc1)C(=O)[C@H](CC(=O)N1CCCC1)C2
AC50 (A549): 25.3 µM (active)

COc1ccc(CNC(=O)c2cc3c(c(-c4cccc(-c5ccc(C#N)cc5)c4)n2)[C@@H](CCO)N([S@+]([O-])C(C)(C)C)C3)cc1
AbsAC35 [11]: 56.25 µM
AbsAC35 [12]: 108.86 µM

C[C@@H]1CN([C@@H](C)CO)C(=O)c2cc(-c3ccncc3)cnc2O[C@H]1CN(C)Cc1ccc(Oc2ccccc2)cc1
IC50 [13]: > 20 µM (inactive)
AC50 [14]: 15.3 µM (active)
AC50 [15]: 2.93 µM (active)

CCCN(C)C[C@@H]1OCCCC[C@H](C)Oc2ccc(NC(=O)Nc3ccc(F)cc3)cc2C(=O)N([C@H](C)CO)C[C@@H]1C
AC50 [16]: 13.1 µM (active)

CO[C@H]1CN(C)C(=O)c2ccc(NC(=O)c3ccc(-c4ccccc4)cc3)cc2OC[C@@H](C)NC[C@H]1C
AC50 [17]: 26.2 µM (active)
AC50 [18]: 22 µM (active)
AC50 [19]: 15.5 µM (active)
AC50 [20]: 20.5 µM (active)
AC50 [21]: 6.23 µM (active)

c1ccc(-c2nnc(SCc3cscn3)o2)cc1
AC50 [22]: > 52 µM (inactive)
